Consider four molecules from ChEMBL document CHEMBL1146522, “Two new xanthone derivatives from the algicolous marine fungus Wardomyces anomalus” (2003).

Activity calls are given as the source filed them. The rule behind the calls is not given here.

One may read the inhibition as the drop in the measured response relative to a control, in per cent.

Assay [1] deals with Radical scavenging activity. Briefly: Antioxidant activity assessed as DPPH radical scavenging activity at 100 ug/mL. In kind it is functional. On the technique in general: Loss of DPPH colour is used to gauge radical scavenging.
The subject of assay [2] is Radical scavenging activity. Briefly: Antioxidant activity assessed as DPPH radical scavenging activity at 25 ug/mL. The class given is functional.
Assay [3] deals with Radical scavenging activity. Description: Antioxidant activity assessed as DPPH radical scavenging activity at 50 ug/mL. In kind it is functional.
Assay [4] concerns Radical scavenging activity. Description: Antioxidant activity assessed as DPPH radical scavenging activity at 500 ug/mL. In kind it is functional.
A short description of assay [5]: Antioxidant activity assessed as inhibition of peroxidation of linolenic acid at 7.4 ug/mL by TBARS assay. In kind it is functional.
A short description of assay [6]: Antioxidant activity assessed as inhibition of peroxidation of linolenic acid at 37 ug/mL by TBARS assay. In kind it is functional.
Assay [7] deals with Aspergillus pseudoglaucus. Description: Antifungal activity against Eurotium repens 50 ug/disk by agar diffusion method. The class given is functional. In general terms: A growth-free zone around the sample is the usual read-out of agar diffusion tests.
The test system of a further assay is [Chlorella] fusca. Description: Antimicrobial activity against Chlorella fusca 50 ug/disk by agar diffusion method. The class given is functional, organism-based. Conditions: Scenedesmus fuscus.
The next assay has as its system Priestia megaterium. Description: Antibacterial activity against Bacillus megaterium 50 ug/disk by agar diffusion method. In kind it is functional.
In assay [8] the target is Tyrosine-protein kinase Lck (Homo sapiens) (UniProt P06239). Briefly: Inhibition of p56-LCK assessed as residual enzyme activity at 200 ug/mL.
Chain of Tyrosine-protein kinase Lck (Homo sapiens) (P06239 2-509 limits assumed): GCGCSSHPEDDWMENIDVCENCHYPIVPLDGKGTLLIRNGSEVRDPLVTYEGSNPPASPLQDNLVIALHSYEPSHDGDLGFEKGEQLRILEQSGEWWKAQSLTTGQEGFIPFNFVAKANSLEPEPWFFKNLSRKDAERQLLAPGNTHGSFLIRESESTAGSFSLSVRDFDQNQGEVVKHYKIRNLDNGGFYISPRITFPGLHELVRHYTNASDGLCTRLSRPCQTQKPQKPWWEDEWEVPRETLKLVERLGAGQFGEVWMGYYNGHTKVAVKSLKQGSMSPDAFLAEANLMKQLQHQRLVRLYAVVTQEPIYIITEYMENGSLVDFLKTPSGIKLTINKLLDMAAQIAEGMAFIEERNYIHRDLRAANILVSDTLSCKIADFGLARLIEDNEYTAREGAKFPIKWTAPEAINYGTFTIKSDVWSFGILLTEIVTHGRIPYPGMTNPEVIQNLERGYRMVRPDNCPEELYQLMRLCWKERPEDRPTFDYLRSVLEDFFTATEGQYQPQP
In the next assay the test system is Microbotryum violaceum. Description: Antifungal activity against Microbotryum violaceum 50 ug/disk by agar diffusion method. The class given is functional.
For assay [9], the target named is Human immunodeficiency virus type 1 reverse transcriptase (Human immunodeficiency virus 1) (UniProt Q72547). Briefly: Inhibition of HIV1 reverse transcriptase assessed as residual enzyme activity at 66 ug/mL.
The next assay concerns Mycotypha microspora. Description: Antifungal activity against Mycotypha microspora 50 ug/disk by agar diffusion method. In kind it is functional, organism-based.
The test system of another assay is Escherichia coli. Description: Antibacterial activity against Escherichia coli 50 ug/disk by agar diffusion method. In kind it is functional, organism-based.

As for `Cc1cc(C(C)(C)C)c(O)c(C(C)(C)C)c1`, the Activity in assay [1] is 89.1%; in assay [2], 73.4%; in assay [3] it was 83.1%; in assay [4], 87.8%. Also, the values for the inhibition in assay [5] and in assay [6] were 42.8% and 48.5%, respectively.
Turning to `O=C(O)c1ccc(CO)o1`, the outcome (in assay [7]; in assay [Chlorella] fusca; in the assay with Priestia megaterium; with Microbotryum violaceum; with Mycotypha microspora; in the assay on Escherichia coli) was inactive. Besides, the Activity came to 87.7% in assay [1]; 0% in [8]; 30.7% in assay [2]; 98.3% in [9]; 53.4% in assay [3]; 97% in assay [4]. Further, the inhibition in assay [5] turned out to be 2.6%; in assay [6], 7.4%.
With `Cc1cc(O)cc2oc3cc(O)cc(O)c3c(=O)c12` [NORLICHEXANTHONE], the “inhibition zone (IZ)” value (in [7]; with Priestia megaterium) was 1 mm throughout. The result in assay [Chlorella] fusca was inactive. For the same molecule, the Activity in [1] was found to be 25.3%; in [8] it was 0%; in assay [2], 6.2%; in assay [9], 82.9%; in assay [3], 12.9%; in assay [4], 90.6%. In assay [5], the inhibition is -7.4%.
Regarding `Cc1c(O)c(O)cc2oc3cc(O)cc(O)c3c(=O)c12` [ANOMALIN A], the result (in assay [Chlorella] fusca; with Priestia megaterium; in the assay with Escherichia coli) was inactive. Moreover, the Activity was found to be 95.2% in assay [1]; 0% in [8]; 94.7% in assay [2]; 82.2% in [9]; 94.8% in assay [3]; 95.4% in assay [4]. For the same molecule, the “inhibition zone (IZ)” value in the assay with Microbotryum violaceum was 1 mm. In addition, the inhibition was 17% in [5] and 37% in assay [6].
